Among the test systems are LOX IMVI; MDA-MB-231; DU-145; OVCAR-8; KM12; IGROV-1; CAKI-1; SR; A549; HOP-62; NCI-H226; M14; RPMI-8226; Hs-578T; SK-OV-3; HT-29; MDA-N; UO-31; SF-295; SK-MEL-5.
Common to all, as to assay: growth of human tumour cells (NCI), 48 h

The structures appear in SMILES notation.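 Assay format: 96-well plates, 48-hour exposure. GI50 = concentration required for 50% inhibition of growth.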 The source made the active and inactive calls. Rule as the data show it: active = GI50 up to about 1.1 µM and inactive = higher. Peptide text beside a SMILES is read from it. * marks the point of attachment. Cbz = O=C(OCc1ccccc1)*; CH2Cl = ClC*

The values that follow come from ChEMBL document CHEMBL1201862, “PubChem BioAssay data set” (2004).

In the case of `CCC(O)CC1OC2(CCC1C)CC1OC(=O)/C=C\C(C)(O)C(O)C(C)C(O)C(OC3CC(OC)C(O)C(C)O3)C(O)C(C)(O)CCC/C=C/C3CC(C)COC3(O)CC(O2)C1C` (stereo not given), the GI50 with LOX IMVI is 11.8 µM (inactive); in the assay with MDA-MB-231, 12 µM (inactive); in the assay with DU-145 it was 2.67 µM (inactive); in the assay with OVCAR-8, < 0.0111 µM (active); with KM12, 2.43 µM (inactive); in the assay with IGROV-1, 18.3 µM (inactive). Besides, the GI50 in the assay with CAKI-1 was 1.24 µM (inactive); in the assay on SR, 19.9 µM (inactive); in the assay on A549 it was < 0.0214 µM (active); in the assay on HOP-62, 2.93 µM (inactive); in the assay with NCI-H226, 0.0904 µM (active); with M14, 6.97 µM (inactive). In addition, the GI50 in the assay with RPMI-8226 was < 0.01 µM (active); with Hs-578T, 12.1 µM (inactive); in the assay on SK-OV-3 it was 26.6 µM (inactive); in the assay on HT-29 it was 12 µM (inactive); in the assay with MDA-N, 2.05 µM (inactive); in the assay with UO-31, 11.2 µM (inactive). The GI50 with SF-295 is < 0.016 µM (active); with SK-MEL-5, < 0.01 µM (active).
Consider `NS(=O)(=O)c1ccc(NNC(=O)c2cccc3c(=O)c4ccccc4[nH]c23)cc1`, for which the GI50 with LOX IMVI is 30.1 µM (inactive); in the assay with MDA-MB-231 it was 51.6 µM (inactive); with DU-145, > 100 µM (inactive); with OVCAR-8 it was > 100 µM (inactive); with KM12, 42.1 µM (inactive); in the assay on IGROV-1, 58.5 µM (inactive). Moreover, the GI50 with CAKI-1 was > 100 µM (inactive); with SR it was 49.8 µM (inactive); with A549 it was > 100 µM (inactive); in the assay with HOP-62, > 100 µM (inactive); in the assay with NCI-H226, > 100 µM (inactive); in the assay with M14 it was > 100 µM (inactive). Besides, the GI50 in the assay with RPMI-8226 was 54.7 µM (inactive); in the assay with Hs-578T it was 72.8 µM (inactive); in the assay with SK-OV-3 it was > 100 µM (inactive); in the assay with HT-29, 66.8 µM (inactive); with MDA-N it was > 100 µM (inactive); in the assay with UO-31, 45.1 µM (inactive). The figures for the GI50 with SF-295 and with SK-MEL-5 were 91 µM (inactive) and 34 µM (inactive), respectively.
On to `O=C1NCC2(CCN(Cc3ccccc3)CC2)N1`, for which the GI50 in the assay on LOX IMVI, with MDA-MB-231, in the assay on DU-145, in the assay on OVCAR-8, in the assay with KM12 and with IGROV-1 was > 100 µM (inactive) in each case. The GI50 in the assay with CAKI-1, with SR, in the assay with A549, in the assay on HOP-62, in the assay on NCI-H226 and in the assay with M14 was > 100 µM (inactive) in each case. For the same compound, the GI50 in the assay with RPMI-8226, with Hs-578T, with SK-OV-3, in the assay on HT-29, in the assay with MDA-N and with UO-31 was > 100 µM (inactive) in each case. Moreover, the GI50 with SF-295 and with SK-MEL-5 was > 100 µM (inactive) each time.
For `N#Cc1ccc(NC(=O)C(CC(=O)OCc2ccccc2)NC(=O)OCc2ccccc2)cc1` (stereo not given), the GI50 in the assay on LOX IMVI was > 10 µM (inactive); with MDA-MB-231 it was > 10 µM (inactive); in the assay with DU-145, 3.72 µM (inactive); in the assay on OVCAR-8, > 10 µM (inactive); in the assay with KM12, > 10 µM (inactive); in the assay on IGROV-1, > 10 µM (inactive). Besides, the GI50 in the assay on CAKI-1, in the assay on SR, with A549, with HOP-62, in the assay on NCI-H226 and in the assay with M14 was > 10 µM (inactive) in each case. For the same compound, the GI50 in the assay with RPMI-8226, in the assay on Hs-578T, in the assay on SK-OV-3, in the assay on HT-29, in the assay with MDA-N and in the assay on UO-31 was > 10 µM (inactive) throughout. The figures for the GI50 in the assay with SF-295 and with SK-MEL-5 were > 10 µM (inactive) and 92 µM (inactive), respectively.
As to `C=CCN1C(=O)/C(=C/c2ccco2)N=C1SC/C=C/C`, the GI50 with LOX IMVI was 26.5 µM (inactive); in the assay with MDA-MB-231 it was 67.9 µM (inactive); in the assay on DU-145, > 100 µM (inactive); with OVCAR-8, 24.1 µM (inactive); with KM12, 39.6 µM (inactive); in the assay on IGROV-1 it was 51.2 µM (inactive). Further, the GI50 with CAKI-1 is 90.8 µM (inactive); in the assay with SR it was 21.6 µM (inactive); in the assay on A549, 49.3 µM (inactive); in the assay on HOP-62, > 100 µM (inactive); in the assay on NCI-H226, > 100 µM (inactive); in the assay on M14 it was 64.1 µM (inactive). The GI50 in the assay with RPMI-8226 is 28 µM (inactive); in the assay with Hs-578T, 53.8 µM (inactive); in the assay with SK-OV-3, > 100 µM (inactive); in the assay on HT-29, 40.4 µM (inactive); in the assay with MDA-N, 21.7 µM (inactive); in the assay with UO-31 it was 73.5 µM (inactive). For the same compound, the GI50 in the assay with SF-295 is 40.4 µM (inactive); in the assay with SK-MEL-5 it was 20.6 µM (inactive).
`CCOc1nc2sc3c(c2c(=O)n1CCSSCCn1c(OCC)nc2sc4c(c2c1=O)CCCC4)CCCC3`: the GI50 is > 100 µM (inactive) in the assay on LOX IMVI; > 100 µM (inactive) in the assay with MDA-MB-231; > 100 µM (inactive) with DU-145; 67.8 µM (inactive) in the assay on OVCAR-8; > 100 µM (inactive) in the assay on KM12; > 100 µM (inactive) in the assay on IGROV-1. The GI50 is > 100 µM (inactive) in the assay with CAKI-1; > 100 µM (inactive) with SR; > 100 µM (inactive) with A549; > 100 µM (inactive) in the assay with HOP-62; 56.4 µM (inactive) in the assay with NCI-H226; > 100 µM (inactive) in the assay with M14. Moreover, the GI50 in the assay with RPMI-8226, in the assay with Hs-578T, in the assay on SK-OV-3, with HT-29, with MDA-N and in the assay on UO-31 was > 100 µM (inactive) each time. The GI50 in the assay on SF-295 and in the assay with SK-MEL-5 was > 100 µM (inactive) throughout.
For `COc1ccc(N2C(=O)C3c4[nH]c5ccccc5c4C4CCC(c5ccccc5)CC4C3C2=O)cc1` (stereo not given), the GI50 in the assay on LOX IMVI is > 32.5 µM (inactive); in the assay with MDA-MB-231, 10.9 µM (inactive); with DU-145, 57.3 µM (inactive); in the assay on OVCAR-8, 17.3 µM (inactive); in the assay with KM12, > 70.5 µM (inactive); with IGROV-1, 30.8 µM (inactive). In addition, the GI50 is 17.4 µM (inactive) in the assay on CAKI-1; 0.424 µM (active) in the assay on SR; 26.5 µM (inactive) in the assay on A549; 7.28 µM (inactive) with HOP-62; > 45.7 µM (inactive) in the assay on NCI-H226; 30.5 µM (inactive) in the assay on M14. The GI50 was 18.5 µM (inactive) in the assay with RPMI-8226; 5.74 µM (inactive) in the assay on Hs-578T; 20.2 µM (inactive) in the assay on SK-OV-3; > 57.5 µM (inactive) in the assay with HT-29; 52.8 µM (inactive) in the assay on MDA-N; 46.8 µM (inactive) in the assay with UO-31. The GI50 in the assay with SF-295 is 22.9 µM (inactive); in the assay with SK-MEL-5 it was 26.1 µM (inactive).
As for `CC(C)CC(NC(=O)OCc1ccccc1)C(=O)NC(Cc1ccccc1)C(=O)CCl` (stereo not drawn) (Cbz-Leu-Phe-CH2Cl; configuration not given here), the GI50 in the assay on LOX IMVI was 0.719 µM (active); with MDA-MB-231, 1.69 µM (inactive); in the assay on DU-145, > 100 µM (inactive); with OVCAR-8 it was 2.08 µM (inactive); in the assay on KM12, 9.77 µM (inactive); with IGROV-1, 2 µM (inactive). For the same compound, the GI50 is 5.14 µM (inactive) in the assay on CAKI-1; 0.501 µM (active) with SR; 15.9 µM (inactive) with A549; 16.1 µM (inactive) in the assay with HOP-62; 1.91 µM (inactive) with NCI-H226; 1.79 µM (inactive) in the assay on M14. In addition, the GI50 in the assay with RPMI-8226 is 1.61 µM (inactive); in the assay on Hs-578T, 4.62 µM (inactive); in the assay on SK-OV-3, 11.4 µM (inactive); with HT-29, 2.68 µM (inactive); in the assay with MDA-N it was 1.56 µM (inactive); in the assay on UO-31 it was 6.46 µM (inactive). The GI50 with SF-295 was 17.5 µM (inactive); with SK-MEL-5 it was 1.82 µM (inactive).
In the case of `O=C(N/N=C\c1ccc([N+](=O)[O-])cc1)Nc1cccc2ccccc12`, the GI50 with LOX IMVI was 22.5 µM (inactive); in the assay with MDA-MB-231, 14.1 µM (inactive); with DU-145, 24.9 µM (inactive); in the assay with OVCAR-8 it was 6.03 µM (inactive); in the assay with KM12, > 29.7 µM (inactive); in the assay with IGROV-1, > 63.2 µM (inactive). Moreover, the GI50 in the assay with CAKI-1 is 15.3 µM (inactive); in the assay on SR, > 55.1 µM (inactive); with A549, > 49.9 µM (inactive); in the assay with HOP-62, 5.93 µM (inactive); in the assay on NCI-H226 it was 17.7 µM (inactive); in the assay on M14, 58.9 µM (inactive). For the same compound, the GI50 was > 100 µM (inactive) with RPMI-8226; 3.99 µM (inactive) with Hs-578T; 4.5 µM (inactive) with SK-OV-3; > 100 µM (inactive) with HT-29; > 100 µM (inactive) in the assay on MDA-N; 24.5 µM (inactive) in the assay on UO-31. The figures for the GI50 in the assay on SF-295 and with SK-MEL-5 were 7.28 µM (inactive) and 31.3 µM (inactive), respectively.
For the compound `O=C1OC(C2Cc3ccccc3C2=O)c2ccccc21` (stereo not given), the GI50 in the assay on LOX IMVI was 99.1 µM (inactive); in the assay with MDA-MB-231, > 100 µM (inactive); in the assay on DU-145, > 100 µM (inactive); with OVCAR-8, > 100 µM (inactive); in the assay with KM12, > 100 µM (inactive); with IGROV-1, > 100 µM (inactive). For the same compound, the GI50 in the assay with CAKI-1, in the assay on SR, in the assay with A549, in the assay on HOP-62, with NCI-H226 and in the assay with M14 was > 100 µM (inactive) each time. Also, the GI50 in the assay on RPMI-8226 is > 100 µM (inactive); in the assay with Hs-578T, > 100 µM (inactive); in the assay with SK-OV-3, > 100 µM (inactive); with HT-29, 26.1 µM (inactive); with MDA-N, > 100 µM (inactive); with UO-31 it was > 100 µM (inactive). The GI50 in the assay with SF-295 and in the assay on SK-MEL-5 was > 100 µM (inactive) in each case.
